In ChEMBL document CHEMBL3774345, “Synthesis of new diarylamides with pyrimidinyl pyridine scaffold and evaluation of their anti-proliferative effect on cancer cell lines” (Bioorg Med Chem Lett, 2016):

What was measured:
Assay type in all cases: functional
[1] = system: NCI-H322M; test: Cytotoxicity against human NCI-H322M cells assessed as cell growth at 10 uM after 24 hrs by SRB assay; details: read-out: Activity
[2] = system: NCI-H522; test: Cytotoxicity against human NCI-H522 cells assessed as cell growth at 10 uM after 24 hrs by SRB assay; details: NCI-H522, 24 h, read-out: Activity
[3] = Cytotoxicity against human COLO205 cells assessed as cell growth at 10 uM after 24 hrs by SRB assay; details: COLO 205, 24 h, read-out: Activity
[4] = Cytotoxicity against human HCT116 cells assessed as cell growth at 10 uM after 24 hrs by SRB assay; details: HCT-116, 24 h, read-out: Activity
[5] = Cytotoxicity against human HCT15 cells assessed as cell growth at 10 uM after 24 hrs by SRB assay; details: HCT-15, 24 h, read-out: Activity
[6] = Cytotoxicity against human SW620 cells assessed as cell growth at 10 uM after 24 hrs by SRB assay; details: SW-620, 24 h, read-out: Activity
[7] = Cytotoxicity against human LOXIMVI cells assessed as cell growth at 10 uM after 24 hrs by SRB assay; details: LOX IMVI, read-out: Activity
[8] = system: M14; test: Cytotoxicity against human M14 cells assessed as cell growth at 10 uM after 24 hrs by SRB assay; details: M14, 24 h, read-out: Activity
[9] = system: SK-MEL-28; test: Cytotoxicity against human SK-MEL-28 cells assessed as cell growth at 10 uM after 24 hrs by SRB assay; details: SK-MEL-28, 24 h, read-out: Activity
[10] = system: SK-MEL-5; test: Cytotoxicity against human SK-MEL-5 cells assessed as cell growth at 10 uM after 24 hrs by SRB assay; details: SK-MEL-5, 24 h, read-out: Activity
[11] = Cytotoxicity against human UACC257 cells assessed as cell growth at 10 uM after 24 hrs by SRB assay; details: UACC-257, 24 h, read-out: Activity
[12] = Cytotoxicity against human NCI-ADR-RES cells assessed as cell growth at 10 uM after 24 hrs by SRB assay; details: read-out: Activity
[13] = system: ACHN; test: Cytotoxicity against human ACHN cells assessed as cell growth at 10 uM after 24 hrs by SRB assay; details: read-out: Activity
[14] = system: SN12C; test: Cytotoxicity against human SN12C cells assessed as cell growth at 10 uM after 24 hrs by SRB assay; details: read-out: Activity
[15] = Cytotoxicity against human UO31 cells assessed as cell growth at 10 uM after 24 hrs by SRB assay; details: UO-31, 24 h, read-out: Activity
[16] = Cytotoxicity against human Hs 578T cells assessed as cell growth at 10 uM after 24 hrs by SRB assay; details: read-out: Activity
[17] = system: T47D; test: Cytotoxicity against human T47D cells assessed as cell growth at 10 uM after 24 hrs by SRB assay; details: read-out: Activity
[18] = system: A549; test: Cytotoxicity against human A549 cells assessed as cell growth at 10 uM after 24 hrs by SRB assay; details: A549, 24 h, read-out: Activity
[19] = Cytotoxicity against human HOP92 cells assessed as cell growth at 10 uM after 24 hrs by SRB assay; details: HOP-92, 24 h, read-out: Activity
[20] = system: NCI-H226; test: Cytotoxicity against human NCI-H226 cells assessed as cell growth at 10 uM after 24 hrs by SRB assay; details: NCI-H226, 24 h, read-out: Activity
[21] = system: NCI-H23; test: Cytotoxicity against human NCI-H23 cells assessed as cell growth at 10 uM after 24 hrs by SRB assay; details: NCI-H23, 24 h, read-out: Activity
[22] = Cytotoxicity against human HOP92 cells assessed as growth inhibition at 10 uM after 24 hrs by SRB assay; details: HOP-92, 24 h, read-out: GI
[23] = system: A498; test: Cytotoxicity against human A498 cells assessed as growth inhibition at 10 uM after 24 hrs by SRB assay; details: A498, 24 h, read-out: GI
[24] = Cytotoxicity against human UO31 cells assessed as growth inhibition at 10 uM after 24 hrs by SRB assay; details: UO-31, 24 h, read-out: GI
[25] = Cytotoxicity against human RPMI8226 cells assessed as growth inhibition at 10 uM after 24 hrs by SRB assay; details: RPMI-8226, 24 h, read-out: GI
[26] = system: SK-MEL-5; test: Cytotoxicity against human SK-MEL-5 cells assessed as growth inhibition at 10 uM after 24 hrs by SRB assay; details: SK-MEL-5, 24 h, read-out: GI
[27] = system: MDA-MB-231; test: Cytotoxicity against human MDA-MB-231 cells assessed as growth inhibition at 10 uM after 24 hrs by SRB assay; details: MDA-MB-231, 24 h, read-out: GI
[28] = system: T47D; test: Cytotoxicity against human T47D cells assessed as growth inhibition at 10 uM after 24 hrs by SRB assay; details: read-out: GI
[29] = system: K562; test: Cytotoxicity against human K562 cells assessed as growth inhibition at 10 uM after 24 hrs by SRB assay; details: K562, 24 h, read-out: GI
[30] = system: NCI-H226; test: Cytotoxicity against human NCI-H226 cells assessed as growth inhibition at 10 uM after 24 hrs by SRB assay; details: NCI-H226, 24 h, read-out: GI
[31] = system: NCI-H522; test: Cytotoxicity against human NCI-H522 cells assessed as growth inhibition at 10 uM after 24 hrs by SRB assay; details: NCI-H522, 24 h, read-out: GI

SMILES	growth at 10 µM [1] [%]	growth at 10 µM [2] [%]	growth at 10 µM [3] [%]	growth at 10 µM [4] [%]	growth at 10 µM [5] [%]	growth at 10 µM [6] [%]	growth at 10 µM [7] [%]	growth at 10 µM [8] [%]	growth at 10 µM [9] [%]	growth at 10 µM [10] [%]	growth at 10 µM [11] [%]	growth at 10 µM [12] [%]	growth at 10 µM [13] [%]	growth at 10 µM [14] [%]	growth at 10 µM [15] [%]	growth at 10 µM [16] [%]	growth at 10 µM [17] [%]	growth at 10 µM [18] [%]	growth at 10 µM [19] [%]	growth at 10 µM [20] [%]	other results
COCCCNc1nc(NC(=O)c2cc(Br)cc(C(F)(F)F)c2)cc(-c2cccnc2)n1	99.9	83.5	96.4	85.6	85.9	86.9	104	96.5	98.6	70.6	91	99.5	87.3	89.1	60.5	83	65	82	57.9	91.8	growth at 10 µM [21]: 103%; inhibition of growth at 10 µM [22]: 42.1%; inhibition of growth at 10 µM [23]: 23.8%; inhibition of growth at 10 µM [24]: 39.5%; inhibition of growth at 10 µM [25]: 34.4%; inhibition of growth at 10 µM [26]: 29.5%; inhibition of growth at 10 µM [27]: 24.2%; inhibition of growth at 10 µM [28]: 35%; inhibition of growth at 10 µM [29]: 26.7%
Cc1cc(Cl)ccc1C(=O)Nc1cc(-c2cccnc2)nc(NCCCN2CCOCC2)n1	102	82.8	101	99.8	104	99	109	101	95.3	92.7	95	106	100	111	89.2	96.9	96.4	87.7	95.9	77.6	growth at 10 µM [21]: 96.7%; inhibition of growth at 10 µM [23]: 22.8%; inhibition of growth at 10 µM [30]: 22.4%
COCCCNc1nc(NC(=O)c2ccc(Cl)cc2C)cc(-c2cccnc2)n1	102	78.6	111	101	109	109	107	103	104	84.1	85.7	108	99.1	111	95.9	103	89.4	79.8	67	89.1	growth at 10 µM [21]: 107%; inhibition of growth at 10 µM [22]: 33%; inhibition of growth at 10 µM [31]: 21.4%
O=C(Nc1cc(-c2cccnc2)nc(NCCCN2CCOCC2)n1)c1ccc(F)cc1Cl	88.2	87.1	99.5	106	94.5	90.3	96.5	102	108	88	95.4	94.5	102	92.1	77	105	99.5	102	91.2	108	growth at 10 µM [21]: 90.5%; inhibition of growth at 10 µM [24]: 23%
COCCCNc1nc(NC(=O)c2cc(OC)cc(OC)c2)cc(-c2cccnc2)n1	92.8	76.5	109	90.3	90.3	101	94.5	107	105	72.4	106	83.5	98.2	95.3	56.7	95.3	63.8	91.2	52.6	96.5	growth at 10 µM [21]: 98.6%; inhibition of growth at 10 µM [22]: 47.4%; inhibition of growth at 10 µM [31]: 23.5%; inhibition of growth at 10 µM [24]: 43.3%; inhibition of growth at 10 µM [25]: 30.6%; inhibition of growth at 10 µM [26]: 27.6%; inhibition of growth at 10 µM [27]: 30.9%; inhibition of growth at 10 µM [28]: 36.2%
COc1cc(OC)cc(C(=O)Nc2cc(-c3cccnc3)nc(NCCCN3CCOCC3)n2)c1	90.9	92	94.3	89.2	90.6	99.9	88.1	104	101	68.3	88.6	95.4	103	86.4	53.6	69	72.8	92.6	67.7	85.7	growth at 10 µM [21]: 91.7%; inhibition of growth at 10 µM [24]: 46.4%; inhibition of growth at 10 µM [26]: 31.7%; inhibition of growth at 10 µM [27]: 20.4%; inhibition of growth at 10 µM [28]: 27.2%; inhibition of growth at 10 µM [29]: 25.9%; inhibition of growth at 10 µM [30]: 32.3%
